Values joined by “and” are separate entries in the source; they are usually repeats but may differ in a detail not shown here. Identical values can stand only once.
Test system: STAT3 Phospho-Tyr705
Experiment: NanoBiT pSTAT3 cell-based immunoassay in A431 cells
Set-up: species or system human
Conditions: for Raw data P-STAT3 / Subtract reagent background P-STAT3 / P-STAT3 (% compared to no inhibitor) / Average P-STAT3 (% compared to no inhibitor) / P-STAT3 (% compared to no inhibitor) Average: IL-6 10 ng/ml; for P-STAT3 (% compared to no inhibitor): replicate
Protocol: Prior to NanoBiT Cell-Based Immunoassay, 50,000 cells were seeded in 160 µl of complete growth media per well of a 96-well plate and incubated overnight. […] If necessary, the cell culture media were replaced with serum-free media after the cells were stably adherent on the plate and incubated overnight. To treat cells with activators or inhibitors, medium was changed to 30 µl of medium containing inhibitors. If activation of a specific pathway is needed, the cells were stimulated with 10 µl of medium containing activators. To lyse the cells, 10 µl of lysis buffer containing 0.1% digitonin diluted in 1X immunoassay buffer with protease and phosphatase inhibitors was added and the plates were mixed vigorously for 20 min. Then, 50 µl of an antibody mix containing two primary antibodies against the target protein and NanoBiT detecting antibodies (0.3 µl each per well), diluted in 1X immunoassay buffer was added to the lysates. The plates were incubated at 23 °C for 90 min, followed by the addition of 25 µl of Nano-Glo® reagent consisting of Nano-Glo® Luciferase Assay Substrate mixed with 1X immunoassay buffer. Luminescence was measured using a plate-reading luminometer.
Single dose or dose response inhibitor treatments were performed prior to activation of the pathways as follows. For IκBα, the cells were treated in 30 µl medium with IKK16 or MG132 for 60 min before the addition of 10 µl of DMEM containing appropriate concentration of TNFα. To measure phosphorylation of AKT or STAT3, the corresponding NanoBiT immunoassays were developed with MCF-7 or A431 cells, respectively, according the same scheme used to develop the IκBα assay using the primary antibodies for AKT and STAT3 described in the reagents section. […] Treatment with LY294002 was performed in 30 µl medium and cells were incubated for 60 min before the addition of 1 µM Insulin. To measure STAT3 phosphorylation, A431 cells were incubated overnight in DMEM medium without serum. […] After addition of the stimulators, the cells were incubated for additional times as follows. IκBα phosphorylation and degradation analyses required both time courses and single time points as described in figures. […] The NanoBiT immunoassay protocol was followed as described above.
All 96-well assay plates were read using a GloMax® 96 Microplate Luminometer from Promega. The instrument was set to 0.5 s integration time. In order to obtain net change of signal, the reagent background values (signal from the well containing all reagent except primary antibodies) were subtracted from the sample values. To plot and analyze the data, Microsoft Excel and GraphPad Prism® Software were used. IC50 values were determined by using a nonlinear regression fit to a sigmoidal dose response (variable slope).

[1] = A431 cells, pretreated 1 h, IL-6 10 ng per ml 30 min
[2] = Actemra 7.62939e-5 ug/ml, A431, Fig 6e
[3] = Actemra 0.000305176 ug/ml, A431, Fig 6e
[4] = Actemra 0.0012207 ug/ml, A431, Fig 6e
[5] = Actemra 0.00488281 ug/ml, A431, Fig 6e
[6] = Actemra 0.0195312 ug/ml, A431, Fig 6e
[7] = Actemra 0.078125 ug/ml, A431, Fig 6e
[8] = Actemra 0.3125 ug/ml, A431, Fig 6e

## Tocilizumab: humanized monoclonal antibody against the IL-6 receptor, approved immunosuppressive drug
[1]
  IC50, inhibition of Phospho-STAT3: 0.16 µg/mL
  STAT3 phosphorylation / JAK2-STAT3 pathway activation, dose response: inhibited
[2]
  Raw data P-STAT3: 317500 and 271600 and 267300
  Subtract reagent background P-STAT3: 173175 and 168875 and 219075
  P-STAT3 (% compared to no inhibitor): 117.6%
[3]
  Raw data P-STAT3: 341900 and 251000 and 260600
  Subtract reagent background P-STAT3: 155645 and 165245 and 246545
  P-STAT3 (% compared to no inhibitor): 91.7% and 120.7%
[4]
  Raw data P-STAT3: 299200 and 250300 and 276700
  Subtract reagent background P-STAT3: 153990 and 180390 and 202890
[5]
  Average P-STAT3 (% compared to no inhibitor): 74.6%
  Raw data P-STAT3: 245000 and 216200 and 217700
  Subtract reagent background P-STAT3: 121185 and 122685 and 149985
  P-STAT3 (% compared to no inhibitor): 82.3% and 68.1% and 73.4%
[6]
  Average P-STAT3 (% compared to no inhibitor): 41.8%
  Raw data P-STAT3: 170000 and 159800 and 165700
  Subtract reagent background P-STAT3: 67955 and 73855 and 78155
  P-STAT3 (% compared to no inhibitor): 46.2% and 41.0% and 38.2%
[7]
  Average P-STAT3 (% compared to no inhibitor): 19.4%
  Raw data P-STAT3: 138700 and 129600 and 119000
  Subtract reagent background P-STAT3: 34580 and 23980 and 43680
  P-STAT3 (% compared to no inhibitor): 23.5% and 13.3% and 21.4%
[8]
  Average P-STAT3 (% compared to no inhibitor): 9.3%
  Raw data P-STAT3: 116800 and 110300 and 113700
  Subtract reagent background P-STAT3: 13270 and 16670 and 19770
  P-STAT3 (% compared to no inhibitor): 9.0% and 9.3% and 9.7%
Actemra 5 ug/ml, A431, Fig 6e
  Average P-STAT3 (% compared to no inhibitor): 7.9%
  Raw data P-STAT3: 110700 and 107600 and 97720
  P-STAT3 (% compared to no inhibitor): 10.8% and 3.4% and 9.3%
Actemra 20 ug/ml, A431, Fig 6e
  Average P-STAT3 (% compared to no inhibitor): 7.7%
  Raw data P-STAT3: 106200 and 97590
  P-STAT3 (% compared to no inhibitor): 11.0% and 4.2% and 7.9%
Actemra […], A431, Fig 6e
  Average P-STAT3 (% compared to no inhibitor): 7.7%

## N#CC[C@H](C1CCCC1)n1cc(-c2ncnc3[nH]ccc23)cn1 [Ruxolitinib]
A431 cells, 1 µM 1 h, IL-6 10 ng per ml 30 min
  IL-6-induced increase in STAT3 phosphorylation: suppressed
Inhibitor 0.0190735 nM
  P-STAT3 (% compared to no inhibitor) Average: 95.1%
  P-STAT3 (% compared to no inhibitor): 96.2% and 96.8% and 92.2%
Inhibitor 0.038147 nM
  P-STAT3 (% compared to no inhibitor) Average: 97.5%
  P-STAT3 (% compared to no inhibitor): 95.4% and 106.7% and 90.5%
Inhibitor 0.0762939 nM
  P-STAT3 (% compared to no inhibitor) Average: 97.0%
  P-STAT3 (% compared to no inhibitor): 96.2% and 100.5% and 94.3%
Inhibitor 0.152588 nM
  P-STAT3 (% compared to no inhibitor) Average: 107.8%
  P-STAT3 (% compared to no inhibitor): 95.8% and 119.8% and 107.8%
Inhibitor 0.305176 nM
  P-STAT3 (% compared to no inhibitor) Average: 102.4%
  P-STAT3 (% compared to no inhibitor): 98.2% and 103.8% and 105.3%
Inhibitor 0.610352 nM
  P-STAT3 (% compared to no inhibitor) Average: 97.6%
  P-STAT3 (% compared to no inhibitor): 90.4% and 95.8% and 106.7%
Inhibitor 1.2207 nM
  P-STAT3 (% compared to no inhibitor) Average: 97.9%
  P-STAT3 (% compared to no inhibitor): 97.3% and 105.4% and 90.9%
Inhibitor 2.44141 nM
  P-STAT3 (% compared to no inhibitor) Average: 96.4%
  P-STAT3 (% compared to no inhibitor): 104.8% and 99.5% and 84.9%
Inhibitor 4.88281 nM
  P-STAT3 (% compared to no inhibitor) Average: 89.5%
  P-STAT3 (% compared to no inhibitor): 81.2% and 88.5% and 98.7%
Inhibitor 9.76562 nM
  P-STAT3 (% compared to no inhibitor) Average: 75.7%
  P-STAT3 (% compared to no inhibitor): 52.6% and 91.9% and 82.5%
Inhibitor 19.5312 nM
  P-STAT3 (% compared to no inhibitor) Average: 80.7%
  P-STAT3 (% compared to no inhibitor): 89.5% and 78.3% and 74.3%
Inhibitor 39.0625 nM
  P-STAT3 (% compared to no inhibitor) Average: 62.0%
  P-STAT3 (% compared to no inhibitor): 59.3% and 71.3% and 55.5%
Inhibitor 78.125 nM
  P-STAT3 (% compared to no inhibitor) Average: 39.8%
  P-STAT3 (% compared to no inhibitor): 39.9% and 42.8% and 36.6%
Inhibitor 156.25 nM
  P-STAT3 (% compared to no inhibitor) Average: 26.0%
  P-STAT3 (% compared to no inhibitor): 30.4% and 24.5% and 23.1%
Inhibitor 312.5 nM
  P-STAT3 (% compared to no inhibitor) Average: 16.9%
  P-STAT3 (% compared to no inhibitor): 16.4% and 18.5% and 15.8%
Inhibitor 625 nM
  P-STAT3 (% compared to no inhibitor) Average: 16.7%
  P-STAT3 (% compared to no inhibitor): 19.9% and 15.7% and 14.5%
Inhibitor 2500 nM
  P-STAT3 (% compared to no inhibitor) Average: 13.8%
  P-STAT3 (% compared to no inhibitor): 12.6% and 13.9% and 14.8%
Inhibitor 5000 nM
  P-STAT3 (% compared to no inhibitor) Average: 15.3%
  P-STAT3 (% compared to no inhibitor): 13.4% and 17.3% and 15.2%
Inhibitor 10000 nM
  P-STAT3 (% compared to no inhibitor) Average: 10.3%
  P-STAT3 (% compared to no inhibitor): 6.2% and 9.4% and 15.3%
Inhibitor […]
  P-STAT3 (% compared to no inhibitor) Average: 12.9%

— PMC6941952, “A homogeneous bioluminescent immunoassay to probe cellular signaling pathway regulation” (Communications Biology, 2020)
